Data taken from patent US9359358B2, “Cyclohexyl azetidine derivatives as JAK inhibitors” (Incyte Holdings Corporation, priority 2011, dated 2016).
Where a name gives a salt, the structure may show the parent alone.

Legend:
human JAK1 = target: T1, human JAK1 (Homo sapiens, UniProt P23458); test: In Vitro JAK Kinase Assay (HTRF, phosphorylation of a biotinylated peptide), JAK1; type: biochemical; details: Table 4; catalytic domain a.a. 837-1142, assay of Example A
T1 construct: human JAK1 (a.a. 837-1142); His tag (N); made in house; host or cells: insect cells (baculovirus)
T1 sequence (P23458 849-1154): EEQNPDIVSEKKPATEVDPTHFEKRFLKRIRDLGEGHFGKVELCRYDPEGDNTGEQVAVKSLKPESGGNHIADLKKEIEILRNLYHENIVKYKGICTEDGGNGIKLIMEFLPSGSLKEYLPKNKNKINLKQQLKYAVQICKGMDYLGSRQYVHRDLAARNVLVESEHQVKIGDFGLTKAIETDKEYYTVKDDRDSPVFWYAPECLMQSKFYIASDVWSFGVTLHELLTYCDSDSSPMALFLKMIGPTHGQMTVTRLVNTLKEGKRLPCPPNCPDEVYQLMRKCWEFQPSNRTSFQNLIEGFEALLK
Experimental: (§1) The catalytic activity of JAK1, JAK2 or JAK3 was assayed by measuring the phosphorylation of a biotinylated peptide. The phosphorylated peptide was detected by homogenous time resolved fluorescence (HTRF). […] Reactions were carried out at room temperature for 1 hour and then stopped with 20 μL 45 mM EDTA, 300 nM SA-APC, 6 nM Eu-Py20 in assay buffer (Perkin Elmer, Boston, Mass.). Binding to the Europium labeled antibody took place for 40 minutes and HTRF signal was measured on a Fusion plate reader (Perkin Elmer, Boston, Mass.).

human JAK2 = target: T2, human JAK2 (Homo sapiens, UniProt O60674); test: In Vitro JAK Kinase Assay (HTRF, phosphorylation of a biotinylated peptide), JAK2; type: biochemical; details: Table 4; assay of Example A
T2 construct: JAK2 (a.a. 828-1132); His tag (N); made in house; host or cells: insect cells (baculovirus)
T2 sequence (O60674 828-1132): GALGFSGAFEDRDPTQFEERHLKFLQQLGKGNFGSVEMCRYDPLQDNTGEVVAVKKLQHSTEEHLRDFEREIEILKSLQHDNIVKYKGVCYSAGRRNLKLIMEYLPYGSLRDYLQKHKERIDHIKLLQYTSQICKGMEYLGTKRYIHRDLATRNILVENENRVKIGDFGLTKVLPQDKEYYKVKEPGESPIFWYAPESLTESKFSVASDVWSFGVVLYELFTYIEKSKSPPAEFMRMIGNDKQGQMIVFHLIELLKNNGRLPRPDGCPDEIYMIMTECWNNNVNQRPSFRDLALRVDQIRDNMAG
Experimental: as §1

IC50 (human JAK1) [nM]	JAK2/JAK1 IC50 ratio (human JAK2)	Structure (SMILES)
< 10	≧10	N#CCC1(n2cc(-c3ncnc4[nH]ccc34)cn2)CN([C@H]2CC[C@@H](Oc3cc(CN4CCC4)nc(C(F)(F)F)n3)CC2)C1 [Example 23, {1-(cis-4-{[6-(azetidin-1-ylmethyl)-2-(trifluoromethyl)pyrimidin-4-yl]oxy}cyclohexyl)-3-[4-(7H-pyrrolo[2,3-d]pyrimidin-4-yl)-1H-pyrazol-1-yl]azetidin-3-yl}acetonitrile tris(trifluoroacetate)]
< 10	≧10	N#CCC1(n2cc(-c3ncnc4[nH]ccc34)cn2)CN([C@H]2CC[C@@H](Oc3cc(CN4CC(O)C4)nc(C(F)(F)F)n3)CC2)C1 [Example 24, {1-(cis-4-{[6-[(3-hydroxyazetidin-1-yl)methyl]-2-(trifluoromethyl)pyrimidin-4-yl]oxy}cyclohexyl)-3-[4-(7H-pyrrolo[2,3-d]pyrimidin-4-yl)-1H-pyrazol-1-yl]azetidin-3-yl}acetonitrile tris(trifluoroacetate) (salt)]
< 10	≧10	N#CCC1(n2cc(-c3ncnc4[nH]ccc34)cn2)CN([C@H]2CC[C@@H](Oc3cc(CN4CCCC4)nc(C(F)(F)F)n3)CC2)C1 [Example 25, {1-(cis-4-{[6-(pyrrolidin-1-ylmethyl)-2-(trifluoromethyl)pyrimidin-4-yl]oxy}cyclohexyl)-3-[4-(7H-pyrrolo[2,3-d]pyrimidin-4-yl)-1H-pyrazol-1-yl]azetidin-3-yl}acetonitrile tris(trifluoroacetate)]
< 10	≧10	N#CCC1(n2cc(-c3ncnc4[nH]ccc34)cn2)CN([C@H]2CC[C@@H](Oc3cc(CN4CC[C@H](O)C4)nc(C(F)(F)F)n3)CC2)C1 [Example 26, {1-(cis-4-{[6-{[(3S)-3-hydroxypyrrolidin-1-yl]methyl}-2-(trifluoromethyl)pyrimidin-4-yl]oxy}cyclohexyl)-3-[4-(7H-pyrrolo[2,3-d]pyrimidin-4-yl)-1H-pyrazol-1-yl]azetidin-3-yl}acetonitrile tris(trifluoroacetate) (salt)]
< 10	≧10	N#CCC1(n2cc(-c3ncnc4[nH]ccc34)cn2)CN([C@H]2CC[C@@H](Oc3cc(CNC[C@@H]4CCCO4)nc(C(F)(F)F)n3)CC2)C1 [Example 27, [3-[4-(7H-pyrrolo[2,3-d]pyrimidin-4-yl)-1H-pyrazol-1-yl]-1-(cis-4-{[6-({[(2S)-tetrahydrofuran-2-ylmethyl]amino}methyl)-2-(trifluoromethyl)pyrimidin-4-yl]oxy}cyclohexyl)azetidin-3-yl]acetonitrile tris(trifluoroacetate)]
< 10	≧10	N#CCC1(n2cc(-c3ncnc4[nH]ccc34)cn2)CN([C@H]2CC[C@@H](Oc3cc(CN4CCC[C@H]4CO)nc(C(F)(F)F)n3)CC2)C1 [Example 28, {1-(cis-4-{[6-{[(2R)-2-(hydroxymethyl)pyrrolidin-1-yl]methyl}-2-(trifluoromethyl)pyrimidin-4-yl]oxy}cyclohexyl)-3-[4-(7H-pyrrolo[2,3-d]pyrimidin-4-yl)-1H-pyrazol-1-yl]azetidin-3-yl}acetonitrile tris(trifluoroacetate) (salt)]
< 10	≧10	N#CCC1(n2cc(-c3ncnc4[nH]ccc34)cn2)CN([C@H]2CC[C@@H](Oc3cc(CN4CCC[C@@H]4CO)nc(C(F)(F)F)n3)CC2)C1 [Example 29, {1-(cis-4-{[6-{[(2S)-2-(hydroxymethyl)pyrrolidin-1-yl]methyl}-2-(trifluoromethyl)pyrimidin-4-yl]oxy}cyclohexyl)-3-[4-(7H-pyrrolo[2,3-d]pyrimidin-4-yl)-1H-pyrazol-1-yl]azetidin-3-yl}acetonitrile tris(trifluoroacetate) (salt)]
< 10	≧10	N#CCC1(n2cc(-c3ncnc4[nH]ccc34)cn2)CN([C@H]2CC[C@@H](Oc3cc(CN4CC[C@H](F)C4)nc(C(F)(F)F)n3)CC2)C1 [Example 31, {1-(cis-4-{[6-{[(3S)-3-fluoropyrrolidin-1-yl]methyl}-2-(trifluoromethyl)pyrimidin-4-yl]oxy}cyclohexyl)-3-[4-(7H-pyrrolo[2,3-d]pyrimidin-4-yl)-1H-pyrazol-1-yl]azetidin-3-yl}acetonitrile tris(trifluoroacetate)]
< 10	≧10	N#CCC1(n2cc(-c3ncnc4[nH]ccc34)cn2)CN([C@H]2CC[C@@H](Oc3cc(CNCC(O)CO)nc(C(F)(F)F)n3)CC2)C1 (stereo partly drawn) [Example 33, {1-(cis-4-{[6-{[(2,3-dihydroxypropyl)amino]methyl}-2-(trifluoromethyl)pyrimidin-4-yl]oxy}cyclohexyl)-3-[4-(7H-pyrrolo[2,3-d]pyrimidin-4-yl)-1H-pyrazol-1-yl]azetidin-3-yl}acetonitrile tris(trifluoroacetate) (salt)]
< 10	≧10	N#CCC1(n2cc(-c3ncnc4[nH]ccc34)cn2)CN([C@H]2CC[C@@H](Oc3cc(CN4CC(F)C4)nc(C(F)(F)F)n3)CC2)C1 [Example 37, {1-(cis-4-{[6-[(3-fluoroazetidin-1-yl)methyl]-2-(trifluoromethyl)pyrimidin-4-yl]oxy}cyclohexyl)-3-[4-(7H-pyrrolo[2,3-d]pyrimidin-4-yl)-1H-pyrazol-1-yl]azetidin-3-yl}acetonitrile tris(trifluoroacetate)]
< 10	≧10	N#CCC1(n2cc(-c3ncnc4[nH]ccc34)cn2)CN([C@H]2CC[C@@H](Oc3cc(CNCC4(CO)CC4)nc(C(F)(F)F)n3)CC2)C1 [Example 38, {1-(cis-4-{[6-[({[1-(hydroxymethyl)cyclopropyl]methyl}-amino)methyl]-2-(trifluoromethyl)pyrimidin-4-yl]oxy}cyclohexyl)-3-[4-(7H-pyrrolo[2,3-d]pyrimidin-4-yl)-1H-pyrazol-1-yl]azetidin-3-yl}acetonitrile tris(trifluoroacetate) (salt)]
< 10	≧10	COCCCNCc1cc(O[C@H]2CC[C@@H](N3CC(CC#N)(n4cc(-c5ncnc6[nH]ccc56)cn4)C3)CC2)nc(C(F)(F)F)n1 [Example 40, {1-(cis-4-{[6-{[(3-methoxypropyl)amino]methyl}-2-(trifluoromethyl)pyrimidin-4-yl]oxy}cyclohexyl)-3-[4-(7H-pyrrolo[2,3-d]pyrimidin-4-yl)-1H-pyrazol-1-yl]azetidin-3-yl}acetonitrile tris(trifluoroacetate)]
< 10	≧10	COCC(C)NCc1cc(O[C@H]2CC[C@@H](N3CC(CC#N)(n4cc(-c5ncnc6[nH]ccc56)cn4)C3)CC2)nc(C(F)(F)F)n1 (stereo partly drawn) [Example 41, {1-(cis-4-{[6-{[(2-methoxy-1-methylethyl)amino]methyl}-2-(trifluoromethyl)pyrimidin-4-yl]oxy}cyclohexyl)-3-[4-(7H-pyrrolo[2,3-d]pyrimidin-4-yl)-1H-pyrazol-1-yl]azetidin-3-yl}acetonitrile tris(trifluoroacetate)]

Structure (SMILES)	IC50 (human JAK1) [nM]	JAK2/JAK1 IC50 ratio (human JAK2)
COCCNCc1cc(O[C@H]2CC[C@@H](N3CC(CC#N)(n4cc(-c5ncnc6[nH]ccc56)cn4)C3)CC2)nc(C(F)(F)F)n1.O=C(O)C(F)(F)F.O=C(O)C(F)(F)F.O=C(O)C(F)(F)F [Example 22, {1-(cis-4-{[6-{[(2-methoxyethyl)amino]methyl}-2-(trifluoromethyl)pyrimidin-4-yl]oxy}cyclohexyl)-3-[4-(7H-pyrrolo[2,3-d]pyrimidin-4-yl)-1H-pyrazol-1-yl]azetidin-3-yl}acetonitrile tris(trifluoroacetate)]	< 10	≧10
CCCNCc1cc(O[C@H]2CC[C@@H](N3CC(CC#N)(n4cc(-c5ncnc6[nH]ccc56)cn4)C3)CC2)nc(C(F)(F)F)n1.O=C(O)C(F)(F)F.O=C(O)C(F)(F)F.O=C(O)C(F)(F)F [Example 32, {1-(cis-4-{[6-[(propylamino)methyl]-2-(trifluoromethyl)pyrimidin-4-yl]oxy}cyclohexyl)-3-[4-(7H-pyrrolo[2,3-d]pyrimidin-4-yl)-1H-pyrazol-1-yl]azetidin-3-yl}acetonitrile tris(trifluoroacetate)]	< 10	≧10
CCCCNCc1cc(O[C@H]2CC[C@@H](N3CC(CC#N)(n4cc(-c5ncnc6[nH]ccc56)cn4)C3)CC2)nc(C(F)(F)F)n1.O=C(O)C(F)(F)F.O=C(O)C(F)(F)F.O=C(O)C(F)(F)F [Example 34, {1-(cis-4-{[6-[(butylamino)methyl]-2-(trifluoromethyl)pyrimidin-4-yl]oxy}cyclohexyl)-3-[4-(7H-pyrrolo[2,3-d]pyrimidin-4-yl)-1H-pyrazol-1-yl]azetidin-3-yl}acetonitrile tris(trifluoroacetate)]	< 10	≧10
CCCCN(C)Cc1cc(O[C@H]2CC[C@@H](N3CC(CC#N)(n4cc(-c5ncnc6[nH]ccc56)cn4)C3)CC2)nc(C(F)(F)F)n1.O=C(O)C(F)(F)F.O=C(O)C(F)(F)F.O=C(O)C(F)(F)F [Example 36, {1-(cis-4-{[6-{[butyl(methyl)amino]methyl}-2-(trifluoromethyl)pyrimidin-4-yl]oxy}cyclohexyl)-3-[4-(7H-pyrrolo[2,3-d]pyrimidin-4-yl)-1H-pyrazol-1-yl]azetidin-3-yl}acetonitrile tris(trifluoroacetate)]	< 10	≧10
